Assay [1] relates to monocytes. As to the kind of experiment: Lipopolysaccharide-activated monocyte TNF production assay (LPS induced TNF release). It is filed as cell-based, human. The following applies: Homo sapiens, Monocyte; LPS induced TNF release from monocytes; read-out: LPS induced TNFa. Here is the method:
Lipopolysaccharide-Activated Monocyte TNF Production Assay
Test compounds were evaluated in vitro for the ability to inhibit the production of TNF by monocytes activated with bacterial lipopolysaccharide (LPS). Fresh residual source leukocytes (a byproduct of plateletpheresis) were obtained from a local blood bank, and peripheral blood mononuclear cells (PBMCs) were isolated by density gradient centrifugation on Ficol-Paque Plus (Pharmacia). PBMCs were suspended at 2×10^6/mL in DMEM supplemented to contain 2% FCS, 10 mM, 0.3 mg/mL […], 100 U/mL penicillin G and […] streptomycin sulfate (complete media). Cells were plated into Falcon flat bottom, 96 well culture plates (200 μL/well) and cultured overnight at 37° C. and 6% CO2. Non-adherent cells were removed by washing with 200 μl/well of fresh medium. Wells containing adherent cells (˜70% monocytes) were replenished with 100 μL of fresh medium.
Preparation of Test Compound Stock Solutions
Test compounds were dissolved in […]. Compound stock solutions were prepared to an initial concentration of […]. Stocks were diluted initially to […] in complete media. Nine two-fold serial dilutions of each compound were then prepared in complete medium.
Treatment of Cells with Test Compounds and Activation of TNF Production with Lipopolysaccharide
One hundred microliters of each test compound dilution were added to microtiter wells containing adherent monocytes and 100 μL complete medium. Monocytes were cultured with test compounds for 60 min at which time 25 μL of complete medium containing 30 ng/mL lipopolysaccharide from E. coli K532 were added to each well. Cells were cultured an additional 4 hrs. Culture supernatants were then removed and TNF presence in the supernatants was quantified using an ELISA.
Flat bottom, 96 well Corning High Binding ELISA plates were coated overnight (4° C.) with 150 μL/well of 3 μg/mL murine anti-human TNF-α MAb (R&D Systems #MAB210). Wells were then blocked for 1 h at room temperature with 200 μL/well of CaCl2-free ELISA buffer supplemented to contain 20 mg/mL BSA (standard ELISA buffer: […], 150 mM NaCl, 2 mM CaCl2, 0.15 mM thimerosal, pH 7.4). Plates were washed and replenished with 100 μL of test supernatants (diluted 1:3) or standards. Standards consisted of eleven 1.5-fold serial dilutions from a stock of 1 ng/mL recombinant human TNF (R&D Systems). Plates were incubated at room temperature for 1 h on orbital shaker (300 rpm), washed and replenished with 100 μL/well of 0.5 μg/mL goat anti-human TNF-α (R&D systems #AB-210-NA) biotinylated at a 4:1 ratio. Plates were incubated for 40 min, washed and replenished with 100 μL/well of alkaline phosphatase-conjugated streptavidin (Jackson ImmunoResearch #016-050-084) at 0.02 μg/mL. Plates were incubated 30 min, washed and replenished with 200 μL/well of 1 mg/mL of p-nitrophenyl phosphate.
Standard curve data were fit to a second order polynomial and unknown TNF-α concentrations determined from their OD by solving this equation for concentration. TNF concentrations were then plotted vs. test compound concentration using a second order polynomial. This equation was then used to calculate the concentration of test compounds causing a 50% reduction in TNF production.

For assay [2], the target named is p38α (Homo sapiens, UniProt Q16539). Briefly: p38 in-vitro HTRF enzyme assay. It is filed as biochemical. Conditions: IC50 value ranges. Here is the method: p38 In-Vitro HTRF Enzyme Assay
The compounds of the invention can be tested for their respective affinities for the p38 protein using a conventional p38 in-vitro enzyme activity assay. For example, a P38-alpha HTRF assay may be used to measure the protein's in-vitro phosphorylation activity, and the data analyzed using time resolved fluorimetry techniques (FRET). A p38 HTRF assay is as follows. The kinase reaction buffer for p38α, p38β, p38δ and p38γ HTRF assays consists of 50 mM Tris-pH 7.5, 5 mM MgCl2, 0.1 mg/mL BSA, 100 μM Na3VO4 and 0.5 mM DTT. The HTRF detection buffer contains 100 mM HEPES-pH 7.5, 100 mM NaCl, 0.1% BSA, 0.05% Tween-20, and 10 mM EDTA. Each compound was dissolved in 100% DMSO and serially diluted (3 fold, 10 point) in a polypropylene 96-well microtiter plate (drug plate). The final starting concentration of the compound in the p38α and p38β enzymatic assays was about 1 μM. The final starting concentration of each compound in the p38δ and p38γ enzymatic assays was about 10 μM. The p38α, p38β, p38δ and p38γ kinase reactions were carried out in a polypropylene 96-well black round bottom assay plate in total volume of 30 μL kinase reaction buffer. Appropriate concentration of purified and activated enzyme (recombinant human) was mixed with indicated concentration of ATP and 100 nM GST-ATF2-Avitag, in the presence or absence (HI control) of each compound. In the absence of enzyme, the background was measured as LO control. HI controls and LO controls contained only DMSO. The reaction was allowed to incubate for 1 hour at RT. […] After 60 minutes incubation at room temperature, the assay plate was read in a Discovery Plate Reader. The wells were excited with coherent 320 nm light and the ratio of delayed ([…] post excitation) emissions at […] (native europium fluorescence) and 665 nm (europium fluorescence transferred to allophycocyanin—an index of substrate phosphorylation) was determined (Park et al, 1999). The resulting data was analyzed by taking the proportion of substrate phosphorylated in the kinase reaction in the presence of each individual compound and comparing it with that phosphorylated in the presence of DMSO vehicle alone (HI control). The data was calculated using the formula: % control (POC)=(compound−average LO)/(average HI−average LO)*100. Data (consisting of POC and inhibitor concentration in μM) was fitted to a 4-parameter equation (y=A+((B−A)/(1+((x/C)^D))), where A is the minimum y (POC) value, B is the maximum y (POC), C is the x (compound concentration) at the point of inflection and D is the slope factor, using a Levenburg-Marquardt non-linear regression algorithm. The inhibition constant (Ki) of the inhibitor was estimated from the IC50 (compound concentration at the point of inflection C) using the Cheng-Prussof equation: Ki=IC50/(1+S/Km), where S is the ATP substrate concentration, and Km is the Michaelis constant for ATP as determined experimentally. All results were expressed as the mean±the standard error of the mean. Data acquisition and non-linear regression algorithms were performed using Activity Base v5.2 and XLfit software v4.1 respectively. Additional assay information may be obtained in Park Y W, Cummings R T, Wu L, et al. Homogeneous Proximity Tyrosine Kinase Assays Scintillation Proximity Assay versus Homogeneous Time-Resolved Fluorescence. Analytical Biochemistry. 1999; 269: 94-104.
In general terms: Time-resolved FRET reads energy transfer from a long-lived donor to a nearby acceptor.

The subject of assay [3] is THP1 cells. As to the kind of experiment: Lipopolysaccharide-activated THP1 cell TNF production assay. It is filed as cell-based, human. Conditions: Homo sapiens, THP-1; LPS-induced TNF-α production in THP1 cells. Here is the method: Lipopolysaccharide-Activated THP1 Cell TNF Production Assay
THP1 cells are resuspended in fresh THP1 media (RPMI 1640, 10% heat-inactivated FBS, 1×PGS, 1×NEAA, plus 30 μM βME) at a concentration of 1E6/mL. One hundred microliters of cells per well are plated in a polystyrene 96-well tissue culture. One microgram per mL of bacterial LPS is prepared in THP1 media and is transferred to the wells. Test compounds are dissolved in 100% DMSO and are serially diluted 3-fold in a polypropylene 96-well microtiter plate (drug plate). HI control and LO control wells contain only DMSO. One microliter of test compound from the drug plate followed by 10 μL of LPS are transferred to the cell plate. The treated cells are induced to synthesize and secrete TNF-α at 37° C. for 3 h. Forty microliters of conditioned media are transferred to a 96-well polypropylene plate containing 110 μL of ECL buffer (50 mM Tris-HCl pH 8.0, 100 mM NaCl, 0.05% Tween 20, 0.05% NaN3 and 1% FBS) supplemented with 0.44 nM MAB610 monoclonal Ab (R&D Systems), 0.34 nM ruthenylated AF210NA polyclonal Ab (R&D Systems) and 44 μg/mL sheep anti-mouse M280 Dynabeads (Dynal). After a 2 h incubation at room temperature with shaking, the reaction is read on the ECL M8 Instrument (IGEN Inc.). A low voltage is applied to the ruthenylated TNF-α immune complexes, which in the presence of TPA (the active component in Origlo), results in a cyclical redox reaction generating light at […]. The amount of secreted TNF-α in the presence of compound compared with that in the presence of DMSO vehicle alone (HI control) is calculated using the formula: % control (POC)=(cpd−average LO)/(average HI−average LO)*100. Data (consisting of POC and inhibitor concentration in μM) is fitted to a 4-parameter equation (y=A+((B−A)/(1+((x/C)^D))), where A is the minimum y (POC) value, B is the maximum y (POC), C is the x (cpd concentration) at the point of inflection and D is the slope factor) using a Levenburg-Marquardt non-linear regression algorithm.

Each structure is given as a SMILES string.

Our source for the IC50 values is US7700593B2, “Imidazo- and triazolo-pyridine compounds and methods of use thereof” (Amgen Inc., priority 2006, dated 2010).

Chain of p38α (Q16539 whole entry): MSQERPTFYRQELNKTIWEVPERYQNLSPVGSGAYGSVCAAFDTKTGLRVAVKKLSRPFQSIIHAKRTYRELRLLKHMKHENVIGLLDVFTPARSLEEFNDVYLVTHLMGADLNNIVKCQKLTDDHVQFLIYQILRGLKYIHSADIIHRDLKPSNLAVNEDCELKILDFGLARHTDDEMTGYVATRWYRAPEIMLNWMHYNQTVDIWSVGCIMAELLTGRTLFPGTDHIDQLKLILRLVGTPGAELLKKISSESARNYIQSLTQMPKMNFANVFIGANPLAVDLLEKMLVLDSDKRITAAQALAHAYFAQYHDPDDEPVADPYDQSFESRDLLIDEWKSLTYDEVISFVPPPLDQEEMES

For `Cc1ccc(C(=O)NC2CC2)cc1-c1ccn2c(-c3ccccc3C(F)(F)F)nnc2c1` [Example 104, N-cyclopropyl-4-methyl-3-(3-(2-(trifluoromethyl)phenyl)[1,2,4]triazolo[4,3-a]pyridin-7-yl)benzamide], the IC50 in assay [1] was 100 to 250 nM; in assay [2], less than 25 nM; in assay [3], 25 to 100 nM.
For `Cc1ccc(C(=O)NC2CC2)cc1-c1ccn2c(C(F)(F)F)nnc2c1` [Example 102, N-cyclopropyl-4-methyl-3-(3-(trifluoromethyl)[1,2,4]triazolo[4,3-a]pyridin-7-yl)benzamide], in that order: 250 to 1000 nM, 100 to 250 nM and 250 to 1000 nM.
For `Cc1c(F)cc(C(=O)Nc2ccon2)cc1-c1ccn2c(-c3c(F)cccc3F)nnc2c1` [Example 92, 3-(3-(2,6-difluorophenyl)[1,2,4]triazolo[4,3-a]pyridin-7-yl)-5-fluoro-N-3-isoxazolyl-4-methylbenzamide], the IC50 in assay [1], in assay [2] and in assay [3] was less than 25 nM each time.
In the case of `Cc1ccc(C(=O)Nc2ccnn2C)cc1-c1ccn2c(-c3cccc(F)c3Cl)nnc2c1` [Example 41, 3-(3-(2-chloro-3-fluorophenyl)[1,2,4]triazolo[4,3-a]pyridin-7-yl)-4-methyl-N-(1-methyl-1H-pyrazol-5-yl)benzamide], the IC50 is 25 to 100 nM in assay [1], less than 25 nM in assay [2] and less than 25 nM in assay [3].
As for `Cc1ccc(C(=O)NC2CC2)cc1-c1ccn2c(NC(C)C)nnc2c1` [Example 7, N-cyclopropyl-4-methyl-3-(3-((1-methylethyl)amino)[1,2,4]triazolo[4,3-a]pyridin-7-yl)benzamide], the IC50 was 100 to 250 nM in assay [1], less than 25 nM in assay [2] and 100 to 250 nM in assay [3].
As to `Cc1ccc(C(=O)NC2CC2)cc1-c1ccn2c(-c3cc(F)c(F)cc3Cl)nnc2c1` [Example 48, 3-(3-(2-chloro-4,5-difluorophenyl)[1,2,4]triazolo[4,3-a]pyridin-7-yl)-N-cyclopropyl-4-methylbenzamide], the values for the IC50 in assay [1], in assay [2] and in assay [3] were 100 to 250 nM, less than 25 nM and 100 to 250 nM, respectively.
In the case of `Cc1ccc(C(=O)NC2CC2)cc1-c1ccn2c(N3CCCC3)nnc2c1` [Example 96, N-cyclopropyl-4-methyl-3-(3-(1-pyrrolidinyl)[1,2,4]triazolo[4,3-a]pyridin-7-yl)benzamide], the IC50 in assay [1] is 250 to 1000 nM; in assay [2] it was less than 25 nM; in assay [3] it was 25 to 100 nM.
For `Cc1ccc(C(=O)NC2CC2)cc1-c1ccn2c(-c3ccc(S(C)(=O)=O)cc3Cl)nnc2c1` [Example 26, 3-(3-(2-chloro-4-(methylsulfonyl)phenyl)[1,2,4]triazolo[4,3-a]pyridin-7-yl)-N-cyclopropyl-4-methylbenzamide], the IC50 was less than 25 nM in assay [2] and 100 to 250 nM in assay [3].
For `Cc1ccc(C(=O)Nc2ccnn2C)cc1-c1ccn2c(C3(C(F)(F)F)CC3)nnc2c1` [Example 20, 4-methyl-N-(1-methyl-1H-pyrazol-5-yl)-3-(3-(1-(trifluoromethyl)cyclopropyl)[1,2,4]triazolo[4,3-a]pyridin-7-yl)benzamide], in that order: less than 25 nM and less than 25 nM.
Take `Cc1ccc(C(=O)NC2CC2)cc1-c1ccn2c(C(C)C)nnc2c1` [Example 27, N-cyclopropyl-4-methyl-3-(3-(1-methylethyl)[1,2,4]triazolo[4,3-a]pyridin-7-yl)benzamide]: the IC50 in assay [2] is less than 25 nM; in assay [3] it was 25 to 100 nM.
With `Cc1ccc(C(=O)NC2CC2)cc1-c1ccn2c(C3(C(F)(F)F)CC3)nnc2c1` [Example 21, N-cyclopropyl-4-methyl-3-(3-(1-(trifluoromethyl)cyclopropyl)[1,2,4]triazolo[4,3-a]pyridin-7-yl)benzamide], the IC50 in assay [2] and in assay [3] was less than 25 nM throughout.
